Assay results: ChEMBL document CHEMBL1135273, “5-Phosphonomethylquinoxalinediones as competitive NMDA receptor antagonists with a preference for the human 1A/2A, rather than 1A/2B receptor composition” (Bioorg Med Chem Lett, 2002)
Activity calls are given as the source filed them. The calls are words filed in the database; no cut-off is given here.

How the values were obtained:
Mus musculus [1] = experiment: Compound at a dose 50 mg/kg was administered intraperitoneally into mouse and percent protection was determined after 1 hour; assay type: functional; conditions: route intraperitoneal
[2] = target: Glutamate NMDA receptor; GRIN1/GRIN2B (Homo sapiens, UniProt Q05586+Q13224); experiment: Inhibitory activity against Xenopus laevis oocyte expressing 1A/2B heteromeric human NMDA (hNMDA) receptor; assay type: protein-complex assay
[3] = target: Glutamate NMDA receptor; GRIN1/GRIN2A (Homo sapiens, UniProt Q05586+Q12879); experiment: Inhibitory activity against Xenopus laevis oocyte expressing 1A/2A heteromeric human NMDA (hNMDA) receptor; assay type: protein-complex assay
[4] = target: Glutamate [NMDA] receptor; experiment: In vitro inhibitory activity at 1 uM concentration against N-methyl-D-aspartate glutamate receptor, using [3H]CGP-39653 binding assay; assay type: protein-complex assay
[5] = tested on: GRIN1/GRIN2A vs GRIN1/GRIN2B (Homo sapiens); experiment: Ratio of human NMDA 1A/2A receptor to human NMDA 1A/2B receptor was determined in xenopus oocytes; 1/26; conditions: Oocyte
Mus musculus [6] = organism: Mus musculus; experiment: Anticonvulsant effect in mouse electroshock-induced seizure test (MES).; assay type: functional
[7] = tested on: GRIN1/GRIN2A vs GRIN1/GRIN2B (Homo sapiens); experiment: Ratio of human NMDA 1A/2A receptor to human NMDA 1A/2B receptor was determined in xenopus oocytes; 1/1; conditions: Oocyte
[8] = tested on: GRIN1/GRIN2A vs GRIN1/GRIN2B (Homo sapiens); experiment: Ratio of human NMDA 1A/2A receptor to human NMDA 1A/2B receptor was determined in xenopus oocytes; 1/9; conditions: Oocyte
[9] = tested on: GRIN1/GRIN2A vs GRIN1/GRIN2B (Homo sapiens); experiment: Ratio of human NMDA 1A/2A receptor to human NMDA 1A/2B receptor was determined in xenopus oocytes; 1/13; conditions: Oocyte
[10] = tested on: GRIN1/GRIN2A vs GRIN1/GRIN2B (Homo sapiens); experiment: Ratio of human NMDA 1A/2A receptor to human NMDA 1A/2B receptor was determined in xenopus oocytes; 1/50; conditions: Oocyte
Mus musculus [11] = experiment: Compound was evaluated for its anticonvulsant effect in mouse electroshock-induced seizure test (MES), 8 hr after intraperitoneal administration; assay type: functional; conditions: ip
Mus musculus [12] = experiment: Compound was evaluated for its anticonvulsant effect in mouse electroshock-induced seizure test (MES), 8 hr after oral administration; assay type: functional
[13] = Compound was tested in vitro for its inhibitory activity against Xenopus laevis oocyte expressing 1A/2B heteromeric human NMDA (hNMDA) receptor
[14] = target: Glutamate [NMDA] receptor; experiment: Compound was tested in vitro for its inhibitory activity at 1 uM concentration against N-methyl-D-aspartate glutamate receptor by using [3H]CGP-39653 binding assay; assay type: protein-complex assay
[15] = Compound was tested in vitro for its inhibitory activity against Xenopus laevis oocyte expressing 1A/2A heteromeric human NMDA (hNMDA) receptor
[16] = tested on: GRIN1/GRIN2A vs GRIN1/GRIN2B (Homo sapiens); experiment: Ratio of human NMDA 1A/2A receptor to human NMDA 1A/2B receptor was determined in xenopus oocytes; 1/15; conditions: Oocyte
[17] = tested on: GRIN1/GRIN2A vs GRIN1/GRIN2B (Homo sapiens); experiment: Ratio of human NMDA 1A/2A receptor to human NMDA 1A/2B receptor was determined in xenopus oocytes; 1/8; conditions: Oocyte
[18] = tested on: GRIN1/GRIN2A vs GRIN1/GRIN2B (Homo sapiens); experiment: Ratio of human NMDA 1A/2A receptor to human NMDA 1A/2B receptor was determined in xenopus oocytes; >1/17; conditions: Oocyte
[19] = tested on: GRIN1/GRIN2A vs GRIN1/GRIN2B (Homo sapiens); experiment: Ratio of human NMDA 1A/2A receptor to human NMDA 1A/2B receptor was determined in xenopus oocytes; 1/40; conditions: Oocyte
[20] = target: Glutamate [NMDA] receptor (Homo sapiens) (UniProt Q05586+Q12879+Q13224+O15399+O60391+Q14957+Q8TCU5); experiment: The compound was tested in vitro for percent inhibition at 1 uM concentration against N-methyl-D-aspartate glutamate receptor by using [3H]CGP-39653 binding assay; assay type: protein-complex assay
[21] = tested on: GRIN1/GRIN2A vs GRIN1/GRIN2B (Homo sapiens); experiment: Ratio of human NMDA 1A/2A receptor to human NMDA 1A/2B receptor was determined in xenopus oocytes; 1/14; conditions: Oocyte
[22] = tested on: GRIN1/GRIN2A vs GRIN1/GRIN2B (Homo sapiens); experiment: Ratio of human NMDA 1A/2A receptor to human NMDA 1A/2B receptor was determined in xenopus oocytes; 1/11; conditions: Oocyte
[23] = tested on: GRIN1/GRIN2A vs GRIN1/GRIN2B (Homo sapiens); experiment: Ratio of human NMDA 1A/2A receptor to human NMDA 1A/2B receptor was determined in xenopus oocytes; 1/7; conditions: Oocyte
[24] = tested on: Glutamate [NMDA] receptor; experiment: The compound was tested in vitro for its inhibitory activity at 1 uM concentration against N-methyl-D-aspartate glutamate receptor by using [3H]CGP-39653 binding assay; Inactive; assay type: protein-complex assay
[25] = tested on: GRIN1/GRIN2A vs GRIN1/GRIN2B (Homo sapiens); experiment: Ratio of human NMDA 1A/2A receptor to human NMDA 1A/2B receptor was determined in xenopus oocytes; 1/111; conditions: Oocyte
[26] = tested on: GRIN1/GRIN2A vs GRIN1/GRIN2B (Homo sapiens); experiment: Ratio of human NMDA 1A/2A receptor to human NMDA 1A/2B receptor was determined in xenopus oocytes; 1/10; conditions: Oocyte

Glutamate NMDA receptor; GRIN1/GRIN2B, sequence (Q13224 whole entry, other chains not shown): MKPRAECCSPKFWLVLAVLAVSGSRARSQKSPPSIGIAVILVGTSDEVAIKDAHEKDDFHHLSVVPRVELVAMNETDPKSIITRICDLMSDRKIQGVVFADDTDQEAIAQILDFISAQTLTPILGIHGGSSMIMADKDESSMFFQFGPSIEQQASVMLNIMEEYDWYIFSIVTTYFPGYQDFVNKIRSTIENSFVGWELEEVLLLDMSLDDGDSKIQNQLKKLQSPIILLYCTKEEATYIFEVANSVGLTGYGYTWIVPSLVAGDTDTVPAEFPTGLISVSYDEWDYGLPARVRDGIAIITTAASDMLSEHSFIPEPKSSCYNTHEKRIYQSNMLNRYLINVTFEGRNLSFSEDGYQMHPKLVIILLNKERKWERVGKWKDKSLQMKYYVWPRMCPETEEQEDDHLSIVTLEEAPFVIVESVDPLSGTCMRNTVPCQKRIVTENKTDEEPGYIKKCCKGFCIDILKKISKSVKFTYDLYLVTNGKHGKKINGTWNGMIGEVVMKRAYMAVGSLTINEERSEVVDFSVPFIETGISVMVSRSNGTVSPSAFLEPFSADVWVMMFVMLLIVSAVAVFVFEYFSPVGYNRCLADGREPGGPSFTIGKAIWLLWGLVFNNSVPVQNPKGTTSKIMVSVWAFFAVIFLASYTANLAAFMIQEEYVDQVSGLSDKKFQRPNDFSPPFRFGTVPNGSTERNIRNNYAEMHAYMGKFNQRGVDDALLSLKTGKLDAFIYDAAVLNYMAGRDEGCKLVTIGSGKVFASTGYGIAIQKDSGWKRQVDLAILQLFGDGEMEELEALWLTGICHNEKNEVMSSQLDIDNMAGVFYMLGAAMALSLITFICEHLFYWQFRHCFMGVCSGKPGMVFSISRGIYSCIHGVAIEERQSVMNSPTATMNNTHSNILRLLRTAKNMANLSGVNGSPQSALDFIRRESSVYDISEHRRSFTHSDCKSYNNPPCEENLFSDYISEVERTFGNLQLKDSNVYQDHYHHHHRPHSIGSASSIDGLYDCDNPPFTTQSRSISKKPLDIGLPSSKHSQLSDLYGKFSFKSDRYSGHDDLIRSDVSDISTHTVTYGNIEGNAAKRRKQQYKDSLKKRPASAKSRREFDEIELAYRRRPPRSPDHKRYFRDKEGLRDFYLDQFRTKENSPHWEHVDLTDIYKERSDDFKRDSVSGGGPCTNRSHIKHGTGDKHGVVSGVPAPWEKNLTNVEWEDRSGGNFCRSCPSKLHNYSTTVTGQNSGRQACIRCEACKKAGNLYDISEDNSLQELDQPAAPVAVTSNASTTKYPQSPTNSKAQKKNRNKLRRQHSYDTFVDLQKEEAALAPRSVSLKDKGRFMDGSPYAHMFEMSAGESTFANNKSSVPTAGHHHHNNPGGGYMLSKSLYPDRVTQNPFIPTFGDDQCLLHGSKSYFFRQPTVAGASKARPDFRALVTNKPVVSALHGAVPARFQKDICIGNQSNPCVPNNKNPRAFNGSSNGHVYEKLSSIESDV
Glutamate NMDA receptor; GRIN1/GRIN2A, sequence (Q12879 whole entry, other chains not shown): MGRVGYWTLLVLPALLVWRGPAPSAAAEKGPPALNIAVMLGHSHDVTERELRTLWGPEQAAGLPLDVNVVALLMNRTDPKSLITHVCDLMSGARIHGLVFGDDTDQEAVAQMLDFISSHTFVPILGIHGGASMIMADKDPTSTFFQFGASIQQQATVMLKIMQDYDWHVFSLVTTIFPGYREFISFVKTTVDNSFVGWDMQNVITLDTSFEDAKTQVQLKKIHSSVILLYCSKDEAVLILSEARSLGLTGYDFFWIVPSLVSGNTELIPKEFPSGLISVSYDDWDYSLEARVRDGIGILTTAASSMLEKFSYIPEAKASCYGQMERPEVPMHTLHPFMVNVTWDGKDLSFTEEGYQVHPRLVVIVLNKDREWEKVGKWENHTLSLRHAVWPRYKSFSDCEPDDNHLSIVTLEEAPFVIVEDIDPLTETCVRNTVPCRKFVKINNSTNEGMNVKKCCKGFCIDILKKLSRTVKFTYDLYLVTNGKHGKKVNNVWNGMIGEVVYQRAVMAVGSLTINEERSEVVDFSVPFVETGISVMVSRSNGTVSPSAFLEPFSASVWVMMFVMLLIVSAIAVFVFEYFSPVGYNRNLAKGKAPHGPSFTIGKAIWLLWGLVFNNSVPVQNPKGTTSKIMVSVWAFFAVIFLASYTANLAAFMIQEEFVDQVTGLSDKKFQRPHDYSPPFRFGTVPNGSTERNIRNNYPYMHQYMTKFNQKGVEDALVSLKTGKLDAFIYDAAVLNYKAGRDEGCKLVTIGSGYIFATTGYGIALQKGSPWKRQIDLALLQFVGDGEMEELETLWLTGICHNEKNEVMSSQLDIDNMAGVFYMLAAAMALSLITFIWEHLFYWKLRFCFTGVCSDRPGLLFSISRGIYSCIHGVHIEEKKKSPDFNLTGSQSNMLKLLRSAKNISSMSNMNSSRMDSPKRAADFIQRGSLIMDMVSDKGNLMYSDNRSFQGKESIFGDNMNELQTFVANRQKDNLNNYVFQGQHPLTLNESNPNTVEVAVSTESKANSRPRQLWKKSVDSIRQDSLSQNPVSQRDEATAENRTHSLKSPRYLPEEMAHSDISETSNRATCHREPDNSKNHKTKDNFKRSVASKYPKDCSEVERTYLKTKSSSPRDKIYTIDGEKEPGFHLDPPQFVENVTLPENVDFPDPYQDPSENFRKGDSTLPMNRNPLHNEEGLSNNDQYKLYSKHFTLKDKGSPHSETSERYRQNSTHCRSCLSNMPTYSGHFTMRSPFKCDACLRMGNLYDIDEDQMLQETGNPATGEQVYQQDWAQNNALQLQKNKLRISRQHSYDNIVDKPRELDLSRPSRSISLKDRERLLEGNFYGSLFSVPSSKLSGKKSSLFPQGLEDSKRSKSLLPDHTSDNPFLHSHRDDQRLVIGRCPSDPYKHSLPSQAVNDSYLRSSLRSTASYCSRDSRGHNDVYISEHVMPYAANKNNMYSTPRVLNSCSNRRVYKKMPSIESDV

| IC50 [2] [nM] | IC50 [3] [nM] | IC50 [4] [nM] | SMILES | ED50 (Mus musculus [6]) [mg/kg] | also measured |
| --- | --- | --- | --- | --- | --- |
| 1300 | 50 | 60 | Br.O=[N+]([O-])c1cc(C(NCc2ccccc2)P(=O)(O)Cc2ccccc2)c2nc(O)c(O)nc2c1 (configuration not stated) |  | Protection (Mus musculus [1]): 20%; Ratio [5]: Active |
| 0.7 | 1.1 | 1.5 | O=P(O)(O)C(O)c1cccc2nc(O)c(O)nc12 (configuration not stated) | 0.5 | Ratio [7]: Active |
| 1.8 | 0.2 | 0.8 | O=P(O)(O)Cc1cc(-c2ccc(Cl)cc2)cc2nc(O)c(O)nc12 | 0.7 | Ratio [8]: Active |
| 1400 | 110 | 370 | COC(=O)NC(c1cc([N+](=O)[O-])cc2nc(O)c(O)nc12)P(=O)(O)O (configuration not stated) | 8.8 | Ratio [9]: Active |
| 900 | 18 | 9.7 | C[C@H](NC(c1cccc2nc(O)c(O)nc12)P(=O)(O)O)c1ccccc1 (some centres not stated) | 6.7 | Ratio [10]: Active |
|  |  |  | O=P(O)(O)Cc1cccc2nc(O)c(O)nc12 | 0.7 | ED50 (Mus musculus [11]): 1.1 mg/kg; ED50 (Mus musculus [12]): 6.7 mg/kg; IC50 [13]: 30 nM; IC50 [14]: 0.5 nM; IC50 [15]: 2 nM; Ratio [16]: Active |
|  |  | 1.7 | O=P(O)(O)Cc1cc(Cl)cc2nc(O)c(O)nc12 | 2.4 |  |
|  |  | 3 | Cl.O=[N+]([O-])c1cc(C(NCC2CCCCC2)P(=O)(O)O)c2nc(O)c(O)nc2c1 (configuration not stated) | 4 |  |
|  |  | 1.5 | O=P(O)(O)Cc1cc(Br)cc2nc(O)c(O)nc12 | 2.5 |  |
|  |  | 1.5 | Br.O=[N+]([O-])c1cc(C(NCc2ccccc2)P(=O)(O)O)c2nc(O)c(O)nc2c1 (configuration not stated) | 1.5 |  |
|  |  | 1 | O=P(O)(O)Cc1cc(F)cc2nc(O)c(O)nc12 |  |  |
|  |  | 40 | Cl.NC(c1cc([N+](=O)[O-])cc2nc(O)c(O)nc12)P(=O)(O)O (configuration not stated) | 11.6 |  |
| 34 | 4.2 | 2 | Br.O=P(O)(O)C(NCc1ccccc1)c1cccc2nc(O)c(O)nc12 (configuration not stated) | 2 | Ratio [17]: Active |
| > 30000 | 1700 | 27 | C[C@H](NC(c1cccc2nc(O)c(O)nc12)P(=O)(O)O)c1cccc2ccccc12 (some centres not stated) | 15 | Ratio [18]: Active |
| 29600 | 270 | 8 | C[C@H](NC(c1cccc2[nH]c(=O)c(=O)[nH]c12)P(=O)(O)O)c1ccc(Br)cc1 (some centres not stated) |  |  |
|  |  | 8.1 | CC(=O)OC(c1cc([N+](=O)[O-])cc2nc(O)c(O)nc12)P(=O)(O)O (configuration not stated) | 5 |  |
| 1600 | 40 | 7.4 | O=P(O)(O)C(NCCc1ccccc1)c1cccc2nc(O)c(O)nc12 (configuration not stated) | 10 | Ratio [19]: Active |

| IC50 [2] [nM] | IC50 [3] [nM] | IC50 [4] [nM] | SMILES | ED50 (Mus musculus [6]) [mg/kg] | also measured |
| --- | --- | --- | --- | --- | --- |
|  |  |  | CP(=O)(O)C(O)c1cc([N+](=O)[O-])cc2nc(O)c(O)nc12 (configuration not stated) |  | Protection (Mus musculus [1]): 0%; inhibition [20]: 42% |
| 24000 | 2800 | 860 | CC(=O)N(C)C(c1cccc2nc(O)c(O)nc12)P(=O)(O)O (configuration not stated) |  | Ratio [8]: Active |
|  |  | 4.1 | Br.O=[N+]([O-])c1cc(C(NCc2ccco2)P(=O)(O)O)c2nc(O)c(O)nc2c1 (configuration not stated) | 3.7 |  |
| 820 | 60 | 120 | O=P(O)(O)C(N[C@H]1CCc2ccccc21)c1cccc2nc(O)c(O)nc12 (some centres not stated) | 2 | Ratio [21]: Active |
|  |  | 1.2 | O=[N+]([O-])c1cc(C(O)P(=O)(O)O)c2nc(O)c(O)nc2c1 (configuration not stated) | 1.2 |  |
| 570 | 50 | 31 | C[C@@H](NC(c1cccc2nc(O)c(O)nc12)P(=O)(O)O)c1ccccc1 (some centres not stated) |  | Protection (Mus musculus [1]): 60%; Ratio [22]: Active |
| 6200 | 490 | 130 | O=P(O)(O)C(Nc1ccccc1)c1cccc2nc(O)c(O)nc12 (configuration not stated) |  | Protection (Mus musculus [1]): 0%; Ratio [17]: Active |
|  |  | 17 | COC(c1cc([N+](=O)[O-])cc2nc(O)c(O)nc12)P(=O)(O)O (configuration not stated) |  |  |
| 1300 | 200 | 80 | Br.CP(=O)(O)C(NCc1ccccc1)c1cc([N+](=O)[O-])cc2nc(O)c(O)nc12 (configuration not stated) |  | Protection (Mus musculus [1]): 0%; Ratio [23]: Active |
|  |  |  | O=P(O)(O)Cc1ccc2nc(O)c(O)nc2c1 |  | IC50 [24]: Not Active |
| 6200 | 790 | 1100 | CNC(c1cccc2nc(O)c(O)nc12)P(=O)(O)O (configuration not stated) |  | Ratio [17]: Active |
|  |  |  | C[C@H](NC(c1cccc2nc(O)c(O)nc12)P(=O)(O)O)c1ccc(Br)cc1 (some centres not stated) | 23 | Ratio [25]: Active |
| 30000 | 600 | 160 | CN(Cc1ccccc1)C(c1cccc2nc(O)c(O)nc12)P(=O)(O)O (configuration not stated) |  | Protection (Mus musculus [1]): 40%; Ratio [10]: Active |
|  |  | 250 | O=C(O)Cc1cccc2nc(O)c(O)nc12 |  |  |
| 1500 | 170 | 38 | O=P(O)(O)C(NC(c1ccccc1)c1ccccc1)c1cccc2nc(O)c(O)nc12 (configuration not stated) | 2.3 | Ratio [8]: Active |
| 930 | 90 | 65 | CCCNC(c1cc([N+](=O)[O-])cc2nc(O)c(O)nc12)P(=O)(O)O.Cl (configuration not stated) | 2.8 | Ratio [26]: Active |
